Data set [1] relates to Rattus norvegicus. As to the kind of experiment: In vivo inhibition of PGE2 in albino rat plasma at 50 mg/kg, po administered 1 hr prior to carrageenan challenge measured after 4 hrs by EIA relative to control. In kind it is functional.
In data set [2] the test system is Rattus norvegicus. As to the kind of experiment: In vivo inhibition of PGE2 in albino rat plasma at 25 mg/kg, po administered 1 hr prior to carrageenan challenge measured after 4 hrs by EIA relative to control. In kind it is functional.
The subject of data set [3] is Rattus norvegicus. As to the kind of experiment: Antiinflammatory activity in albino rat assessed as protection against carrageenan-induced paw edema at 50 mg/kg, po administered 1 hr prior to carrageenan challenge measured after 4 hrs relative to control. It is filed as functional. A general note: Carrageenan injected into the paw causes an acute inflammation.
Data set [4] concerns Rattus norvegicus. The data set can be described thus: Antiinflammatory activity in albino rat assessed as protection against carrageenan-induced paw edema at 25 mg/kg, po administered 1 hr prior to carrageenan challenge measured after 4 hrs relative to control. It is filed as functional.
The nature of data set [5]: Acute toxicity in rat. In kind it is organism-based. As to conditions: in vivo.

For orientation: inhibition in vivo means the share of the control response that was lost under treatment. Take `COc1ccc(C2CC(c3ccc(NC(=O)c4cc(Cl)ccc4OC)cc3)=NN2)cc1` (centres undefined): testing at 50 mg/kg in the data set with Rattus norvegicus [1] gave an inhibition in vivo of 83%. This molecule also yielded an inhibition in vivo at 25 mg/kg in the data set on Rattus norvegicus [2] of 70.5%. For the same molecule, the Activity in the data set with Rattus norvegicus [3] came out at 89%; in the data set with Rattus norvegicus [4] it was 82.55%.

The molecule `COc1ccc(Cl)cc1C(=O)Nc1ccc(C2=NNC(c3ccccc3[N+](=O)[O-])C2)cc1` (centres undefined) came in with an inhibition in vivo at 50 mg/kg with Rattus norvegicus [1] of 84.5%. In the data set with Rattus norvegicus [2], this molecule registered an inhibition in vivo at 25 mg/kg of 72.3%. Further, the results for the Activity in the data set on Rattus norvegicus [3] and with Rattus norvegicus [4] were 90.89% and 88.3%, respectively.

Take `COc1ccc(Cl)cc1C(=O)Nc1ccc(C2=NNC(c3ccc([N+](=O)[O-])cc3)C2)cc1` (centres undefined): at 50 mg/kg the inhibition in vivo in the data set with Rattus norvegicus [1] was 86.3%. The molecule further had an inhibition in vivo at 25 mg/kg in the data set with Rattus norvegicus [2] of 76.3%. Further, the Activity in the data set on Rattus norvegicus [3] turned out to be 95.3%; with Rattus norvegicus [4] it was 91.25%.

Regarding `COc1ccc(C2CC(c3ccc(NC(=O)c4cc(Cl)ccc4OC)cc3)=NN2C(C)=O)cc1` (centres undefined), the inhibition in vivo at 50 mg/kg in the data set with Rattus norvegicus [1] is 88.4%. The inhibition in vivo at 25 mg/kg in the data set with Rattus norvegicus [2] was determined as 79.4%. Moreover, the Activity with Rattus norvegicus [3] stood at 90.2%; in the data set on Rattus norvegicus [4], 86%.

`COc1ccc(Cl)cc1C(=O)Nc1ccc(C2=NN(C(C)=O)C(c3ccccc3[N+](=O)[O-])C2)cc1` (centres undefined) displayed an inhibition in vivo at 50 mg/kg with Rattus norvegicus [1] of 87.2%. The molecule also had an inhibition in vivo at 25 mg/kg in the data set with Rattus norvegicus [2] of 77.2%. Moreover, the Activity in the data set on Rattus norvegicus [3] was determined as 96.15%; in the data set with Rattus norvegicus [4], 92.16%.

Regarding `COc1ccc(Cl)cc1C(=O)Nc1ccc(C2=NN(CN3CCOCC3)C(c3ccc([N+](=O)[O-])cc3)C2)cc1` (centres undefined), the inhibition in vivo at 50 mg/kg with Rattus norvegicus [1] was found to be 90.1%. The inhibition in vivo at 25 mg/kg in the data set on Rattus norvegicus [2] is 80.1%. Besides, the Activity with Rattus norvegicus [3] is 97.9%; with Rattus norvegicus [4] it was 94.13%.

One may read the LD50 as the dose expected to kill half of the subjects tested. Turning to `COc1ccc(/C=C/C(=O)c2ccc(NC(=O)c3cc(Cl)ccc3OC)cc2)cc1`, in the data set with Rattus norvegicus [1], the inhibition in vivo at 50 mg/kg was 79.2%. The molecule also showed an inhibition in vivo at 25 mg/kg in the data set with Rattus norvegicus [2] of 68.1%. Besides, the Activity in the data set with Rattus norvegicus [3] is listed as 93.1%; in the data set with Rattus norvegicus [4] it was 79%. In data set [5], this molecule returned an LD50 of 2230 mg/kg.

Consider `COc1ccc(Cl)cc1C(=O)Nc1ccc(C(=O)/C=C/c2ccccc2[N+](=O)[O-])cc1`, for which the inhibition in vivo at 50 mg/kg in the data set on Rattus norvegicus [1] was determined as 80.4%. In the data set on Rattus norvegicus [2], this molecule yielded an inhibition in vivo at 25 mg/kg of 69.1%. In addition, the Activity in the data set on Rattus norvegicus [3] is listed as 85.85%; with Rattus norvegicus [4] it was 81.8%. In addition, in data set [5], the LD50 amounted to 2400 mg/kg.

As to `COc1ccc(Cl)cc1C(=O)Nc1ccc(C(=O)/C=C/c2ccc([N+](=O)[O-])cc2)cc1`, the LD50 in data set [5] stood at 1830 mg/kg.

As for `COc1ccc(C2CC(c3ccc(NC(=O)c4cc(Cl)ccc4OC)cc3)=NN2C)cc1` (centres undefined), at 50 mg/kg the inhibition in vivo in the data set on Rattus norvegicus [1] was 81.8%. Moreover, in the data set on Rattus norvegicus [2], the inhibition in vivo at 25 mg/kg amounted to 69.6%. Moreover, the Activity stood at 93.15% in the data set on Rattus norvegicus [3] and 88.1% with Rattus norvegicus [4]. In addition, the 50% lethal dose (LD50) in data set [5] was 2390 mg/kg.

In the data set with Rattus norvegicus [1], `COc1ccc(Cl)cc1C(=O)Nc1ccc(C2=NN(C)C(c3ccccc3[N+](=O)[O-])C2)cc1` (centres undefined) had an inhibition in vivo at 50 mg/kg of 91.2%. The same molecule yielded an inhibition in vivo at 25 mg/kg in the data set on Rattus norvegicus [2] of 83.8%. For the same molecule, the Activity was found to be 99.5% in the data set on Rattus norvegicus [3] and 96.45% in the data set with Rattus norvegicus [4]. The same molecule yielded an LD50 in data set [5] of 2350 mg/kg.

In the case of `COc1ccc(Cl)cc1C(=O)Nc1ccc(C2=NN(C)C(c3ccc([N+](=O)[O-])cc3)C2)cc1` (centres undefined), 50 mg/kg produced 83.2% inhibition in vivo with Rattus norvegicus [1]. In the data set with Rattus norvegicus [2], this molecule had an inhibition in vivo at 25 mg/kg of 71.3%. Also, the Activity in the data set on Rattus norvegicus [3] stood at 97.4%; in the data set on Rattus norvegicus [4], 93%. The same molecule came in with an LD50 in data set [5] of 2540 mg/kg.

Molecule `COc1ccc(C2CC(c3ccc(NC(=O)c4cc(Cl)ccc4OC)cc3)=NN2c2ccccc2)cc1` (centres undefined) had an inhibition in vivo at 50 mg/kg in the data set on Rattus norvegicus [1] of 90.2%. The same molecule displayed an inhibition in vivo at 25 mg/kg in the data set with Rattus norvegicus [2] of 82.3%. The Activity was determined as 98% in the data set on Rattus norvegicus [3] and 94.82% with Rattus norvegicus [4]. Also, the LD50 in data set [5] was found to be 2390 mg/kg.

`COc1ccc(Cl)cc1C(=O)Nc1ccc(C2=NN(c3ccccc3)C(c3ccccc3[N+](=O)[O-])C2)cc1` (centres undefined) came in with an inhibition in vivo at 50 mg/kg in the data set with Rattus norvegicus [1] of 84.3%. In the data set on Rattus norvegicus [2], this molecule yielded an inhibition in vivo at 25 mg/kg of 73.3%. The values for the Activity in the data set with Rattus norvegicus [3] and in the data set on Rattus norvegicus [4] were 88.4% and 80.18%, respectively. The same molecule registered an LD50 in data set [5] of 2390 mg/kg.

For `COc1ccc(Cl)cc1C(=O)Nc1ccc(C2=NN(c3ccccc3)C(c3ccc([N+](=O)[O-])cc3)C2)cc1` (centres undefined), 50 mg/kg produced 85.3% inhibition in vivo in the data set on Rattus norvegicus [1]. Also, the inhibition in vivo at 25 mg/kg with Rattus norvegicus [2] came out at 75.3%. Moreover, the Activity was found to be 94.1% with Rattus norvegicus [3] and 90.85% in the data set on Rattus norvegicus [4]. The LD50 in data set [5] was 2380 mg/kg.

Regarding `C[C@]12C=CC(=O)C=C1CC[C@@H]1[C@@H]2[C@@H](O)C[C@@]2(C)[C@H]1CC[C@]2(O)C(=O)CO` [PREDNISOLONE], the inhibition in vivo at 50 mg/kg in the data set on Rattus norvegicus [1] is 92.1%. Besides, the inhibition in vivo at 25 mg/kg in the data set on Rattus norvegicus [2] is 78.1%. Moreover, the Activity is on record as 92.1% with Rattus norvegicus [3] and 80.4% with Rattus norvegicus [4].

These data come from ChEMBL document CHEMBL2424639, “Synthesis and pharmacological activities of some novel 5-chloro-N-(4-(1,5-(disubstituted)-4,5-dihydro-1H-pyrazol-3-yl)phenyl)-2-methoxybenzamide derivatives” (Med Chem Res, 2013).
